Holding throughout (format): biochemical
The target in one assay is T1, 15-LO (Oryctolagus cuniculus, UniProt P12530).
T1 construct: endogenous in cells; host or cells: rabbit reticulocytes
T1 sequence (P12530 1-663): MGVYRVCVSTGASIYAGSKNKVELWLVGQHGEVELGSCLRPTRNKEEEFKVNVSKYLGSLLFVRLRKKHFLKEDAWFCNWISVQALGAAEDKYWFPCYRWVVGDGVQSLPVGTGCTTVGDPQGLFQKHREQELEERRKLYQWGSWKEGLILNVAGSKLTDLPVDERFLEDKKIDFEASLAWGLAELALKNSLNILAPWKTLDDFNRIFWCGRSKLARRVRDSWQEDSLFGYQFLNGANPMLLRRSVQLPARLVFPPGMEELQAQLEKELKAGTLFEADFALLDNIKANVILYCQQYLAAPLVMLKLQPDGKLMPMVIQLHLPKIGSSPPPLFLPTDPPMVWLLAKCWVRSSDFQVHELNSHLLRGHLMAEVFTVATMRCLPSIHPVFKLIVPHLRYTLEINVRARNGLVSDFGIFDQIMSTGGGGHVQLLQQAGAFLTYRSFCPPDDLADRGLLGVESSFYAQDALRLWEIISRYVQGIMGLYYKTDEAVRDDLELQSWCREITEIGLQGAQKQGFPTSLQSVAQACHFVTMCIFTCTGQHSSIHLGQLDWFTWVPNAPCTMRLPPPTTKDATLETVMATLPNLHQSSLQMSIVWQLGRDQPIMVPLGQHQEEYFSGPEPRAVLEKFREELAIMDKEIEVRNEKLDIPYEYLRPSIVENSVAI
The assay is described as follows: 15-LO assay (13-HPODE, spectrophotometric). The note with it: rabbit reticulocytes; 13-HPODE spectrophotometrically. The procedure: (§1) 5-LO and 15-LO assays: Human peripheral blood mononuclear cells (PBMC) cells and rabbits reticulocytes were used in the 5-LO and 15-LO bioassays, and the assays were conducted according to the protocols reported previously, with either linoleic acid or arachidonic acid as substrates. LO activity was measured by quantifying immunodetectable Leukotriene B4 (LTB4) specifically with enzyme immunoassay (EIA) in the 5-LO assay, or monitoring 13-hydroperoxy-9,11-octadecadienoic acid (13-HPODE) spectrophotometrically in the 15-LO assay.
(§2) The results were expressed as either percentage inhibition, or IC50, for test samples and data represent the average ±SD of at least triplicate determinations.

A further assay deals with T2, Human recombinant COX-2 (Homo sapiens, UniProt P35354).
T2 construct: purchased Sigma C-0858; host or cells: insect Sf21 cells
T2 sequence (P35354 18-604): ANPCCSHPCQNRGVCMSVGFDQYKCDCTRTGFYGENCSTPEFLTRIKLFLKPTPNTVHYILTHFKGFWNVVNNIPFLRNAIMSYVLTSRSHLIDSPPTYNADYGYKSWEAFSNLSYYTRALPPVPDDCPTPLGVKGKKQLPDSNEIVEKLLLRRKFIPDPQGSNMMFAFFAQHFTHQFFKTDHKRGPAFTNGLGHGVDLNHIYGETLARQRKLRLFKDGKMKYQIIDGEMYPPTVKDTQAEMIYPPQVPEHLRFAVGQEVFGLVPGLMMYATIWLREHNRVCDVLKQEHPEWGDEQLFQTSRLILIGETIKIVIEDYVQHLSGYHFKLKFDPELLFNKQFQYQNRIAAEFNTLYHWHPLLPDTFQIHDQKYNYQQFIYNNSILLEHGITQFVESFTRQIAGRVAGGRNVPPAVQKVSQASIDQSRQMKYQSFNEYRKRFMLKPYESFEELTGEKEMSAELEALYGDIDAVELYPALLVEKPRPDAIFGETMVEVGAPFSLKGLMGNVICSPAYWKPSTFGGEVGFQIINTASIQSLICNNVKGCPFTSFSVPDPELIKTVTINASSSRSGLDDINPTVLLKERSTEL
The assay is described as follows: COX-2 inhibition assay (PGE2 EIA). The note with it: human recombinant COX-2 expressed in Sf21 cells; 0.3 μM arachidonic acid. The procedure:
COX-1 and COX-2 assays: COX-1 and -2 Inhibition assays were performed by the methods described previously with minor modifications. COX-2 enzyme was purchased from Sigma (Catalog # C-0858), and the PGE2 EIA kit from Amersham (Catalog # RPN 220). Human recombinant COX-2, expressed in insect Sf21 cells, and human platelets, respectively, were used in the COX-2 and COX-1 assays. The extract and partitions were dissolved in DMSO (Sigma, USA), and tested at 100 μg/mL (final concentration). The pure compounds were initially tested at 30 μM. […] Test samples were preincubated with 0.12 μg/ml enzyme in modified Tris-HCl buffer pH 7.7 (COX-2), and with cells (5×10^7/ml), in modified HEPES buffer pH 7.4 (COX-1) for 15 minutes at 37° C. The reactions were initiated by addition of 0.3 μM arachidonic acid (COX-2), and 100 μM arachidonic acid (COX-1), respectively, for another 5-minute incubation period, then terminated by further addition of 1 N HCl. An aliquot was then combined with the EIA kit for spectrophotometric determination of the quantity of PGE2 formed.
as §2

The target in the next assay is T3, 5-LO (Homo sapiens, UniProt P09917).
T3 construct: endogenous in cells; host or cells: human peripheral blood mononuclear cells (PBMC)
T3 sequence (P09917 1-674): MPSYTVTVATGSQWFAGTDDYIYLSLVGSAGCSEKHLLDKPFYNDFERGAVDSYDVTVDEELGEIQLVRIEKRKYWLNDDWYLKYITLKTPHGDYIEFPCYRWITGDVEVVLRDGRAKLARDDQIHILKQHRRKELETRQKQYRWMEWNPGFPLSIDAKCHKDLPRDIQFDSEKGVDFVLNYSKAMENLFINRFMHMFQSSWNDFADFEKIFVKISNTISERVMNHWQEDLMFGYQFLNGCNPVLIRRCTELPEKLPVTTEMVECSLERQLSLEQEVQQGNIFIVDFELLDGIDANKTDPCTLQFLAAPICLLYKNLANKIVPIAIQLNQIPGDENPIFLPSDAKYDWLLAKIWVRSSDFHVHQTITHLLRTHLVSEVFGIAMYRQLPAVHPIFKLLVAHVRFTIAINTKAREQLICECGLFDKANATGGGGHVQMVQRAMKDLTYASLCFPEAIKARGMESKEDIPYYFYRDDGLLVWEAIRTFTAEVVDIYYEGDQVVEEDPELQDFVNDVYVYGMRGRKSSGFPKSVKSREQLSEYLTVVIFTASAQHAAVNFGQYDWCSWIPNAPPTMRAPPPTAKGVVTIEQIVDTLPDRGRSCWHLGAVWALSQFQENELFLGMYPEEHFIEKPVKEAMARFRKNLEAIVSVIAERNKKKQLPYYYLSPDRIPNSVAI
The assay is described as follows: 5-LO assay (LTB4 by EIA). The note with it: human PBMC. The procedure:
as §1, §2

This note sets out measurements from patent publication US20080226758A1, “Lipoxygenase and Cyclooxygenase Inhibition” (priority 2006, published 2008).

Several values for one entry are separate records, joined by “and”; a condition that tells them apart may be missing. Equal entries are not always repeated.

The IC50 is the concentration at which inhibition is half-maximal. As for `OCC1C(c2ccc(O)c(O)c2)OCC1C(O)c1ccc(O)c(O)c1` (single isomer, unassigned; (+)) [compound 2, (+)-3,3′-bisdemethyltanegool], the IC50 was found to be 760 nM against 15-LO and 73900 nM at Human recombinant COX-2.

On 15-LO, `COc1cc2ccc(=O)oc2cc1O` [compound 7, scopoletin] yielded an IC50 of 16500 nM.

As to `O=c1c(O)c(-c2ccc(O)cc2)oc2cc(O)cc(O)c12` [compound 6, kaempferol], the IC50 against 5-LO was 2650 to 13800 nM and 2700 nM; at 15-LO, 2200 nM.

For `O=C1OC(c2ccc(O)c(O)c2)C2COC(c3ccc(O)c(O)c3)C12` (single isomer, unassigned; (+)) [compound 1, (+)-3,4,3′,4′-tetrahydroxy-9,7′α-epoxylignano-7α,9′-lactone], the IC50 is 520 nM against 15-LO and 90200 nM at Human recombinant COX-2.

`COc1cc2oc(=O)ccc2cc1O` [compound 8, isoscopoletin] came in with an IC50 against 15-LO of 15100 nM.

For the compound `Oc1ccc(C2OCC3C(c4ccc(O)c(O)c4)OCC23)cc1O` (stereo not drawn) [compound 4, 3,3′-bisdemethylpinoresinol], the IC50 at 15-LO was 520 nM; on Human recombinant COX-2 it was over 100000 nM.

As for `O=c1c(O)c(-c2ccc(O)c(O)c2)oc2cc(O)cc(O)c12` [compound 5, quercetin], the IC50 at 15-LO was determined as 430 nM; on Human recombinant COX-2, 28600 nM.
